The subject of the experiment is 521955-158-R2-J5-PDC complex spheroid viability. As to the kind of experiment: Anticancer human tumor 521955-158-R2-J5-PDC patient-derived pancreatic carcinoma cell line growth inhibition [GQUAD]. Conditions: for viability, T/C: stronger effect = lower value. The text has this: DNA G-quadruplex Stabilizer Agents in Combinations in Complex Spheroids
A high-throughput screen of multi-cell type tumor spheroids was designed to identify active combinations of DNA G-quadruplex stabilizer agents and targeted small molecules. Complex spheroids include a stromal component modeled by human endothelial cells (HUVEC) and fibroblasts modeled by human mesenchymal stem cells (MSCs). The concentration ranges selected for each drug and investigational agent were based upon clinically achievable concentrations if the clinical Cmax of the agent was known.
Compounds. The drugs and investigational agents: pidnarulex (CX-5461; NSC782164), APTO-253 (NSC789042), BRACO-19 (NSC847499), peposertib (NSC802822), ceralasertib (NSC780249), elimusertib (NSC800525), camonsertib (NSC841442), AZD-1390 (NSC803789), olaparib (NSC753686), talazoparib (NSC767125), ART-558 (NSC835418), sotorasib (NSC818433), MRTX-1133 (NSC836407), SN-38 (NSC673596), topotecan (NSC609699), etoposide (NSC141540), doxorubicin (NSC123127), gemcitabine (NSC613327), 5-fluorouracil (NSC19893), paclitaxel (NSC125973), vemurafenib (NSC761431), panobinostat (NSC761190), R-306465 (JNJ-16241199; NSC773264), adavosertib (NSC754352), TP-3654 (NSC805149), carboplatin (NSC241240), KSQ-4279 (NSC840948), and staurosporine (NSC755774) were obtained from the National Cancer Institute (NCI) Developmental Therapeutics Program Chemical Repository (34). The FDA-approved anticancer drug set is available from the NCI Developmental Therapeutics Program. […] The stock solutions were prepared in dimethyl sulfoxide (DMSO, Sigma-Aldrich, St. Louis, MO, cat. D2650) at 800-fold the tested concentration and stored at -70 degrees C prior to their use. All drugs and investigational agents were tested over a range starting from a high concentration at or near the clinical Cmax and decreasing in half-log increments. If the clinical Cmax for an agent had not been determined, the highest concentration tested was 10 microM.
2.3 Cell Culture. All cells were maintained in an incubator at 37 degrees C and 5% CO2 with 95% humidity. The PDC lines were cultured according to standard operating procedures established by the NCI PDMR. All PDCs were thawed and cultured in Matrigel-coated flasks prepared with a working solution of 1X Ham's F-12 nutrient mix, without supplementation (Invitrogen, cat. 11765054), 100 U/mL penicillin-streptomycin (Invitrogen, cat. 15140122), and 2.5% Matrigel (Corning Inc., cat. 354248) for the first three passages. The 857933-349-R-J2-PDC line was cultured in 6C/Colon 1B media, which includes advanced DMEM/F-12 (Thermo Fisher Scientific, cat. 12634028), 10 mM HEPES (Thermo Fisher Scientific, cat. 15630080), 1X GlutaMAX supplement (Thermo Fisher Scientific, cat. 35050061), 0.1 mg/mL primocin (InvivoGen, cat. ant-pm-2), 10% defined fetal bovine serum, heat inactivated (HyClone Laboratories Inc., cat. SH30070.03HI), 50% L-WRN conditioned media (ATCC, cat. CRL-3276), 1.25 mM N-Acetyl-L-cysteine (Sigma-Aldrich, cat. A9165), 10 mM nicotinamide (Sigma-Aldrich, cat. N0636), 1X B-27 supplement (Thermo Fisher Scientific, cat. 17504044), 1X N-2 supplement (Thermo Fisher Scientific, cat. 17502048), 10 microM Y-27632 dihydrochloride (Tocris Bioscience, cat. 1254), and 50 ng/mL human EGF recombinant protein (Thermo Fisher Scientific, cat. PHG0311). The 485176-168-R4-J1-PDC line was cultured in Panc media, which includes all 6C/Colon 1B media components plus 100 ng/mL human FGF-10 (Thermo Fisher Scientific, cat. 100-26), 500 nM SB-431542 (Selleckchem, cat. S1067), and gastrin (Tocris, cat. 3006).
[…]

Each structure is given as a SMILES string. Several values for one entry are separate records, joined by “and”; a condition that tells them apart may be missing. Identical values can stand only once.
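Also: spheroids exposed to agents for one week before reading.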

For `CCc1c2c(nc3ccc(O)cc13)-c1cc3c(c(=O)n1C2)COC(=O)[C@]3(O)CC`, the viability, T/C (usually the result in the treated group divided by that in the control group, in per cent) is 71% and 85.3% and 74.8% (compound 0.000999 µM); 12.1% and 39.8% and 21.3% (compound 0.00316 µM); 7.66% and 28.1% and 9.19% (compound 0.00999 µM); 6.38% and 17.9% and 8.13% (compound 0.0316 µM); 5.13% and 11.7% and 5.42% (compound 0.0999 µM); 3% and 10.7% and 2.39% (compound 0.316 µM). Further, where the note is “curve of compound”, the IC50 (commonly the point on the concentration scale where inhibition reaches its midpoint) is 1.51 nM and 2.59 nM and 1.71 nM.
As to `CC1COCCN1c1cc(-c2ccnn2C)c2ccnc(-c3ccn[nH]3)c2n1` (stereo not given), the viability, T/C runs as follows: (compound 0.0316 µM) 86% and 82.9% and 82.7%; (compound 0.1 µM) 13.9% and 30.4% and 13.4%; (compound 0.316 µM) 10.9% and 17.4% and 9.83%; (compound 1 µM) 13.5% and 21.3% and 12.2%; (compound 3.16 µM) 16.9% and 33.8% and 15.8%; (compound 10 µM) 19.7% and 38.7% and 26.2%. In addition, the IC50 (curve of compound) is 56.7 nM and 64.6 nM and 55.3 nM.
With `CC1COCCN1c1cc(C2(O)CC3CCC(C2)O3)c2cnn(-c3ccn[nH]3)c2n1` (stereo not given) + Cc1[nH]c2ccc(F)cc2c1-c1nc2c3cccnc3c3ncccc3c2[nH]1, the IC50 by setting is: (curve of first compound, second compound 0.0316 µM) less than 31.6 nM; (curve of first compound, second compound 0.1 µM) less than 31.6 nM; (curve of first compound, second compound 0.316 µM) less than 31.6 nM; (curve of first compound, second compound 1 µM) less than 31.6 nM; (curve of first compound, second compound 3.16 µM) less than 31.6 nM; (curve of first compound, second compound 10 µM) less than 31.6 nM. In addition, the viability, T/C is 32.6% (second compound 0.0316 µM, first compound 0.0316 µM); 10.8% (second compound 0.0316 µM, first compound 0.1 µM); 13.3% (second compound 0.0316 µM, first compound 0.316 µM); 19.7% (second compound 0.0316 µM, first compound 1 µM); 19.2% (second compound 0.0316 µM, first compound 3.16 µM); 8.74% (second compound 0.0316 µM, first compound 10 µM). Also, the viability, T/C reads like this: (second compound 0.1 µM, first compound 0.0316 µM) 32.5%; (second compound 0.1 µM, first compound 0.1 µM) 11.2%; (second compound 0.1 µM, first compound 0.316 µM) 12.6%; (second compound 0.1 µM, first compound 1 µM) 19.3%; (second compound 0.1 µM, first compound 3.16 µM) 20.1%; (second compound 0.1 µM, first compound 10 µM) 8.59%. Also, the viability, T/C reads like this: (second compound 0.316 µM, first compound 0.0316 µM) 28.1%; (second compound 0.316 µM, first compound 0.1 µM) 11.6%; (second compound 0.316 µM, first compound 0.316 µM) 12.2%; (second compound 0.316 µM, first compound 1 µM) 16.5%; (second compound 0.316 µM, first compound 3.16 µM) 20.5%; (second compound 0.316 µM, first compound 10 µM) 7.43%. Also, the viability, T/C (second compound 1 µM, first compound 0.0316 µM) is 34.3%; the viability, T/C (second compound 1 µM, first compound 0.1 µM) was 10.7%; the viability, T/C (second compound 1 µM, first compound 0.316 µM) was 12.4%; the viability, T/C (second compound 1 µM, first compound 1 µM) is 17.4%; the viability, T/C (second compound 1 µM, first compound 3.16 µM) was 22.9%; the viability, T/C (second compound 1 µM, first compound 10 µM) was 10.7%. The viability, T/C (second compound 3.16 µM, first compound 0.0316 µM) was 38.7%; the viability, T/C (second compound 3.16 µM, first compound 0.1 µM) is 10.7%; the viability, T/C (second compound 3.16 µM, first compound 0.316 µM) is 13.9%; the viability, T/C (second compound 3.16 µM, first compound 1 µM) is 22.5%; the viability, T/C (second compound 3.16 µM, first compound 3.16 µM) is 25.4%; the viability, T/C (second compound 3.16 µM, first compound 10 µM) was 8.16%. Also, the viability, T/C was 29.5% (second compound 10 µM, first compound 0.0316 µM); 10.6% (second compound 10 µM, first compound 0.1 µM); 15% (second compound 10 µM, first compound 0.316 µM); 20.7% (second compound 10 µM, first compound 1 µM); 26.7% (second compound 10 µM, first compound 3.16 µM); 6.74% (second compound 10 µM, first compound 10 µM).
As to `CCCS(=O)(=O)Nc1ccc(F)c(C(=O)c2c[nH]c3ncc(-c4ccc(Cl)cc4)cc23)c1F`, the viability, T/C is, setting by setting: (compound 0.0316 µM) 112% and 121% and 109%; (compound 0.1 µM) 83.8% and 96.3% and 95%; (compound 0.316 µM) 73.2% and 96.7% and 148%; (compound 1 µM) 102% and 108% and 152%; (compound 3.16 µM) 217% and 247% and 153%; (compound 10 µM) 92.2% and 112% and 62.1%. In addition, where the note is “curve of compound”, the half-inhibitory concentration (IC50) is more than 10000 nM.
Consider `COc1ncnc(C2CC2)c1-c1ncc2cnn(Cc3ccc(-c4nc(C(F)(F)F)cn4C(C)C)cc3)c2n1`, for which the viability, T/C is, setting by setting: (compound 0.0316 µM) 116% (2×) and 103%; (compound 0.1 µM) 88.7% and 102% and 106%; (compound 0.316 µM) 105% and 113% and 124%; (compound 1 µM) 85% and 107% and 113%; (compound 3.16 µM) 116% and 114% and 132%; (compound 10 µM) 124% and 108% and 134%. Moreover, the IC50 (curve of compound) is more than 10000 nM.
